≈ marks a conversion by molar mass, not a printed value. Like-named read-outs stand apart in the source and are kept apart here.
How the values were obtained:
CACO-2 cells = assay: Epithelial cell interaction monitored as transepithelial electrical resistance (TEER); format: cell-based
Method: Possible interaction with epithelial cells in the form of CACO-2 cells monitored as transepitheliar electrical resistance (TEER) was studied for some of the compounds. In short, after an equilibration time of 60 min the buffer solution at the donor side was exchanged with a buffer solution containing a certain concentration of the surfactant and TEER was then measured after 8 hours.

[1] = tested on: dog blood erythrocyte suspension; assay: Haemolytic activity, static method (erythrocyte suspension incubated with surfactant, haemoglobin analysed); format: cell-based; conditions: for Hemolysis: 40 min at 37° C.
Method: A static method for evaluating the haemolytic activity of compounds was used. In short, dog blood is processed to an erythrocyte suspension, which is then incubated (40 min at 37° C.) with varying concentrations of a surfactant. The incubation is terminated by centrifugation after which the plasma, now containing different amounts of haemoglobin, can be removed and analysed. The results obtained for various MePEG- and PEG mono-12-acyloxy-stearate esters compared with a reference substance (Tween 80), are summarized in tables 3-4.

physchem = assay: physchem
Method: The solubilization capacity of the compounds of the invention and compounds of prior art for two poorly soluble (i.e. less than sparingly soluble) drug molecules, felodipine and griseofulvin, were tested. […] Sci., 1998, 87(2), 200-8]. The solubilization capacity for each surfactant was determined from the slope of the curve in a graph where the felodipine/griseofulvin concentration was plotted against the surfactant concentration at surfactant concentrations above CMC (critical micellar concentration).

[2] = cited from earlier work

Compound	TEER after 8 hours exposure (CACO-2 cells; surfactant conc 10 mM) [%]	TEER after 8 hours exposure (CACO-2 cells; surfactant conc 50 mM) [%]	TEER after 8 hours exposure (CACO-2 cells; surfactant conc 0.1 mM) [%]	TEER after 8 hours exposure (CACO-2 cells; surfactant conc 1 mM) [%]	other results
MePEG2000 12-palmitoyloxy-stearate	96	99			
MePEG1200 12-stearoyloxy-stearate	101	71			
PEG1500 mono-12-oleoyloxy-stearate	95	108	105	104	
PEG1500 mono-12-stearoyloxy-stearate	103	108	98	104	
PEG1500 mono-12-myristoyloxy-stearate	104	98	104	100	
CCCCCCC(O)CCCCCCCCCCC(=O)OCCOCCOCCOCCOCCOCCOCCOCCOCCOCCOCCOCCOC (stereo not shown) [MePEG550 12-hydroxystearate]					haemolysis (in words) ([1]; at 1 mM): profound hemolysis; Hemolysis ([1]; surfactant conc 1.0 mM): 25%; Hemolysis ([1]; surfactant conc 5.0 mM): 86%; Hemolysis ([1]; surfactant conc 10 mM): 79%; concentration causing total haemolysis ([1]; text summary of Tables 3-4): 5000 µM
MePEG2000 12-stearoyloxy-stearate	98	96			
CCCCCCCC(=O)OC(CCCCCC)CCCCCCCCCCC(=O)OCCOCCOCCOCCOCCOCCOCCOCCOCCOCCOCCOCCOCCO (stereo not shown) [PEG600 mono-12-octanoyloxy-stearate]					Hemolysis ([1]; surfactant conc 0.6 mM): 88%; Hemolysis ([1]; surfactant conc 0.7 mM): 102%
PEG1500 mono-12-palmitoyloxy-stearate	103	101	98	105	
MePEG1200 12-palmitoyloxy-stearate	94	103			
PEG1500 mono-12-lauroyloxy-stearate	93	37	100	96	change in TEER / interaction with epithelial cells (in words) (CACO-2 cells; after 8 hours): substantial decrease in TEER
COC1=CC(=O)C[C@@H](C)[C@]12Oc1c(Cl)c(OC)cc(OC)c1C2=O [griseofulvin]					solubility (physchem; water): ~23 µM (≈ 8.11 µg/mL); solubility in water [2]: approximately 8.1 μg/ml
CCCCCCC(CCCCCCCCCCC(=O)OCCOCCOCCOCCOCCOCCOCCOCCOCCOCCOCCOCCOCCO)OC(=O)CCCCC (stereo not shown) [PEG600 mono-12-hexanoyloxy-stearate]	39	37	89	43	Hemolysis ([1]; surfactant conc 0.6 mM): 83%; Hemolysis ([1]; surfactant conc 0.7 mM): 92%
CCOC(=O)C1=C(C)NC(C)=C(C(=O)OC)C1c1cccc(Cl)c1Cl (stereo not shown) [felodipine]					solubility in water (physchem): 2.1 µM (≈ 0.807 µg/mL); solubility in water [2]: 0.8 µg/mL (≈ 2.08 µM)
